From US20230012936A1, “COMBINATION THERAPY USING GLUCAGON AND GLP-1 CO-AGONISTS FOR THE TREATMENT OF OBESITY” (MEDIMMUNE, LLC, priority 2019, published 2023)

Tests used:
[1] = Safety: adverse events, laboratory values, vital signs, ECG; format: in vivo, human; conditions: as judged by the investigator
Experimental: Blood samples were collected to evaluate anti-drug antibody (ADA) response to cotadutide. Serum samples were evaluated for ADA using a validated immunoassay. Adverse events (AEs) and serious adverse events (SAEs) were collected from the time of informed consent throughout the treatment period and including the follow-up period. AEs and SAEs were graded by severity and relationship to investigational product and SAEs were assessed for relationship to protocol procedures.

clinical = conditions: for Cmax: Dapagliflozin mean Cmax
Experimental: The Cmax and the corresponding tmax were identified from the observed data. Log-linear regression of the terminal phase yielded the terminal rate constant (λz). The area under the plasma concentration time-curve during the dosing interval (AUCτ) was calculated by the log-linear trapezoidal rule. The area under the curve to infinity (AUC0-inf) was calculated as the sum of AUC(o-t) and Ct/z, where Ct is the observed plasma concentration obtained from the log-linear regression analysis of the last quantifiable time point and z is the terminal phase rate constant. Clearance (CL/F) was determined by dose/AUC0-inf, and the terminal half-life (t1/2) was calculated as 0.693/λz.

[2] = 10 mg/day PO, cited from earlier work

Impact of cotadutide on dapagliflozin oral absorption (clinical; dapagliflozin 10 mg/day PO): marginal impact
half-life (clinical; human, plasma, oral, 10 mg/day): ~8 h
Cmax (clinical; human, plasma, oral, cotadutide group, Day −1 (cotadutide not yet co-administered)): 117 ng/mL
Cmax (clinical; human, plasma, oral, group receiving dapagliflozin and placebo, Day 7): 92 ng/mL
Cmax (clinical; human, plasma, oral, group receiving dapagliflozin and placebo, Day 14): 95.6 ng/mL
Cmax (clinical; human, plasma, oral, group receiving dapagliflozin and placebo, Day 28): 112 ng/mL
Cmax (clinical; human, plasma, oral, group receiving dapagliflozin and placebo, Day −1): 110 ng/mL
Cmax (clinical; human, plasma, oral, in the presence of cotadutide, Day 7): 84.4 ng/mL
Cmax (clinical; human, plasma, oral, in the presence of cotadutide, Day 14): 61.1 ng/mL
Cmax (clinical; human, plasma, oral, in the presence of cotadutide, Day 28): 94.2 ng/mL
Structure (SMILES): CCOc1ccc(Cc2cc([C@@H]3O[C@H](CO)[C@@H](O)[C@H](O)[C@H]3O)ccc2Cl)cc1 [dapagliflozin]
Incidence of dapagliflozin-related TEAEs, cotadutide group [1]: 4.0%
Incidence of dapagliflozin-related TEAEs, placebo group [1]: 8.3%
Dapagliflozin Cmax (literature) ([2]; Dapagliflozin NDA 202293): 120 ng/mL
Dapagliflozin tmax (literature) ([2]; Dapagliflozin NDA 202293): 1 h
Dapagliflozin half-life (literature) ([2]; literature data): 15 h
